The data set can be described thus: refractive index (Na D-line) (dimensionless). To be noted: 101.33 kPa, Liquid, Standard Abbe refractometry.

± gives the expanded uncertainty stated by the source.

For the molecule `CCCC[n+]1ccc(C)cc1.F[B-](F)(F)F` [1-butyl-4-methylpyridinium tetrafluoroborate], the refractive index (298.1 K) was found to be 1.4509 ± 0.0008.

On to `CCCCc1ccccc1` [butylbenzene], for which the refractive index (293.1 K) stood at 1.4895 ± 0.0008.

In the case of `CCCCCCCCCCCC` [dodecane], the refractive index (293.1 K) stood at 1.422 ± 0.0008.

Take `CCCc1ccccc1` [propylbenzene]: the refractive index (293.1 K) came to 1.4915 ± 0.0008.

In general, refractive index refers to the speed of light in vacuum divided by its phase velocity in the sample.
